Laboratory results from patent US20060134102A1, “Lymphotoxin beta receptor agents in combination with chemotherapeutic agents” (Biogen Idec MA Inc., priority 2002, published 2006).
Where “and” joins values, the source holds several entries; their conditions need not be identical. Equal entries are not always repeated.

Tested on: KM-20L2 human colorectal adenocarcinoma
Test: KM-20L2 xenograft model: growth of established KM-20L2 human colorectal tumors in athymic nude mice (tumor volume/weight, % T/C, Fa, Combination Index)
Format: in vivo

For “huCBE11: humanized anti-LT-β-R agonist antibody (LTβ receptor-activating mAb), described in WO 02/30986”, the “Mean Fraction Affected (Fa)” value (huCBE11 2 mg/kg, Day 9) was 0.103, the “Mean Fraction Affected/Fraction Unaffected (Fa/Fu)” value (huCBE11 2 mg/kg, Day 9) was 0.115 and the “Mean Tumor Volume” value (huCBE11 2 mg/kg, Day 9) was 100.3 cubic mm. For the same substance, the “Mean Tumor Volume Decrease” value (huCBE11 2 mg/kg, Day 9) was 11.5 cubic mm, the “Mean Fraction Affected (Fa)” value (huCBE11 2 mg/kg, Day 13) was 0.057 and the “Mean Fraction Affected/Fraction Unaffected (Fa/Fu)” value (huCBE11 2 mg/kg, Day 13) was 0.061. The “Mean Tumor Volume” value (huCBE11 2 mg/kg, Day 13) was 162.7 cubic mm, the “Mean Tumor Volume Decrease” value (huCBE11 2 mg/kg, Day 13) was 9.9 cubic mm and the “Mean Fraction Affected (Fa)” value (huCBE11 2 mg/kg, Day 16) was 0.119. The “Mean Fraction Affected/Fraction Unaffected (Fa/Fu)” value (huCBE11 2 mg/kg, Day 16) was 0.135, the “Mean Tumor Volume” value (huCBE11 2 mg/kg, Day 16) was 233.5 cubic mm and the “Mean Tumor Volume Decrease” value (huCBE11 2 mg/kg, Day 16) was 31.5 cubic mm. For the same substance, the “Mean Fraction Affected (Fa)” value (huCBE11 2 mg/kg, Day 20) was 0.342, the “Mean Fraction Affected/Fraction Unaffected (Fa/Fu)” value (huCBE11 2 mg/kg, Day 20) was 0.521 and the “Mean Tumor Volume” value (huCBE11 2 mg/kg, Day 20) was 263.7 cubic mm. For the same substance, the “Mean Tumor Volume Decrease” value (huCBE11 2 mg/kg, Day 20) was 137.3 cubic mm, the “Mean Fraction Affected/Fraction Unaffected (Fa/Fu)” value (huCBE11 2 mg/kg, Day 23) was 0.554 and the “Mean Tumor Volume” value (huCBE11 2 mg/kg, Day 23) was 339.2 cubic mm. For the same substance, the “Mean Tumor Volume Decrease” value (huCBE11 2 mg/kg, Day 23) was 188.0 cubic mm, the “Mean Fraction Affected (Fa)” value (huCBE11 2 mg/kg, Day 27) was 0.419 and the “Mean Fraction Affected/Fraction Unaffected (Fa/Fu)” value (huCBE11 2 mg/kg, Day 27) was 0.720. The “Mean Tumor Volume” value (huCBE11 2 mg/kg, Day 27) was 388.7 cubic mm, the “Mean Tumor Volume Decrease” value (huCBE11 2 mg/kg, Day 27) was 279.9 cubic mm and the “Mean Fraction Affected (Fa)” value (huCBE11 2 mg/kg, Day 30) was 0.449. The “Mean Fraction Affected/Fraction Unaffected (Fa/Fu)” value (huCBE11 2 mg/kg, Day 30) was 0.813, the “Mean Tumor Volume” value (huCBE11 2 mg/kg, Day 30) was 450.1 cubic mm and the “Mean Tumor Volume Decrease” value (huCBE11 2 mg/kg, Day 30) was 366.1 cubic mm. The “Mean Fraction Affected (Fa)” value (huCBE11 2 mg/kg, Day 34) was 0.505, the “Mean Fraction Affected/Fraction Unaffected (Fa/Fu)” value (huCBE11 2 mg/kg, Day 34) was 1.020 and the “Mean Tumor Volume” value (huCBE11 2 mg/kg, Day 34) was 519.9 cubic mm. For the same substance, the “Mean Tumor Volume Decrease” value (huCBE11 2 mg/kg, Day 34) was 530.4 cubic mm, the “Mean Fraction Affected (Fa)” value (huCBE11 2 mg/kg, Day 37) was 0.520 and the “Mean Fraction Affected/Fraction Unaffected (Fa/Fu)” value (huCBE11 2 mg/kg, Day 37) was 1.082. The “Mean Tumor Volume” value (huCBE11 2 mg/kg, Day 37) was 580.1 cubic mm, the “Mean Tumor Volume Decrease” value (huCBE11 2 mg/kg, Day 37) was 627.9 cubic mm and the “Mean Fraction Affected (Fa)” value (huCBE11 2 mg/kg, Day 41) was 0.567. For the same substance, the “Mean Fraction Affected/Fraction Unaffected (Fa/Fu)” value (huCBE11 2 mg/kg, Day 41) was 1.310, the “Mean Tumor Volume” value (huCBE11 2 mg/kg, Day 41) was 623.2 cubic mm and the “Mean Tumor Volume Decrease” value (huCBE11 2 mg/kg, Day 41) was 816.2 cubic mm. For the same substance, the “Mean Fraction Affected (Fa)” value (huCBE11 2 mg/kg, Day 43) was 0.588, the “Mean Fraction Affected/Fraction Unaffected (Fa/Fu)” value (huCBE11 2 mg/kg, Day 43) was 1.424 and the “Mean Tumor Volume” value (huCBE11 2 mg/kg, Day 43) was 662.7 cubic mm. For the same substance, the “Mean Tumor Volume Decrease” value (huCBE11 2 mg/kg, Day 43) was 944.0 cubic mm, the “Tumor growth vs vehicle control” value (huCBE11 4 mg/kg and 2 mg/kg, Days 20-55, separate study) was “significantly decreased” and the “Mean Fraction Affected (Fa)” value (huCBE11 4 mg/kg, Day 9) was −0.125. The “Mean Fraction Affected/Fraction Unaffected (Fa/Fu)” value (huCBE11 4 mg/kg, Day 9) was −0.111, the “Mean Tumor Volume” value (huCBE11 4 mg/kg, Day 9) was 125.8 cubic mm and the “Mean Tumor Volume Decrease” value (huCBE11 4 mg/kg, Day 9) was −14.0 cubic mm. The “Mean Fraction Affected (Fa)” value (huCBE11 4 mg/kg, Day 13) was −0.048, the “Mean Fraction Affected/Fraction Unaffected (Fa/Fu)” value (huCBE11 4 mg/kg, Day 13) was −0.046 and the “Mean Tumor Volume” value (huCBE11 4 mg/kg, Day 13) was 180.9 cubic mm. For the same substance, the “Mean Tumor Volume Decrease” value (huCBE11 4 mg/kg, Day 13) was −8.3 cubic mm, the “Mean Fraction Affected/Fraction Unaffected (Fa/Fu)” value (huCBE11 4 mg/kg, Day 16) was 0.070 and the “Mean Tumor Volume” value (huCBE11 4 mg/kg, Day 16) was 247.6 cubic mm. The “Mean Tumor Volume Decrease” value (huCBE11 4 mg/kg, Day 16) was 17.4 cubic mm, the “Mean Fraction Affected (Fa)” value (huCBE11 4 mg/kg, Day 20) was 0.307 and the “Mean Fraction Affected/Fraction Unaffected (Fa/Fu)” value (huCBE11 4 mg/kg, Day 20) was 0.442. The “Mean Tumor Volume” value (huCBE11 4 mg/kg, Day 20) was 278.0 cubic mm, the “Mean Tumor Volume Decrease” value (huCBE11 4 mg/kg, Day 20) was 123.0 cubic mm and the “Mean Fraction Affected (Fa)” value (huCBE11 4 mg/kg, Day 23) was 0.347. The “Mean Fraction Affected/Fraction Unaffected (Fa/Fu)” value (huCBE11 4 mg/kg, Day 23) was 0.531, the “Mean Tumor Volume” value (huCBE11 4 mg/kg, Day 23) was 344.3 cubic mm and the “Mean Tumor Volume Decrease” value (huCBE11 4 mg/kg, Day 23) was 182.9 cubic mm. For the same substance, the “Mean Fraction Affected (Fa)” value (huCBE11 4 mg/kg, Day 27) was 0.423, the “Mean Fraction Affected/Fraction Unaffected (Fa/Fu)” value (huCBE11 4 mg/kg, Day 27) was 0.733 and the “Mean Tumor Volume” value (huCBE11 4 mg/kg, Day 27) was 385.8 cubic mm. For the same substance, the “Mean Tumor Volume Decrease” value (huCBE11 4 mg/kg, Day 27) was 282.8 cubic mm, the “Mean Fraction Affected (Fa)” value (huCBE11 4 mg/kg, Day 30) was 0.412 and the “Mean Fraction Affected/Fraction Unaffected (Fa/Fu)” value (huCBE11 4 mg/kg, Day 30) was 0.700. The “Mean Tumor Volume” value (huCBE11 4 mg/kg, Day 30) was 480.1 cubic mm, the “Mean Tumor Volume Decrease” value (huCBE11 4 mg/kg, Day 30) was 336.1 cubic mm and the “Mean Fraction Affected (Fa)” value (huCBE11 4 mg/kg, Day 34) was 0.468. For the same substance, the “Mean Fraction Affected/Fraction Unaffected (Fa/Fu)” value (huCBE11 4 mg/kg, Day 34) was 0.879, the “Mean Tumor Volume” value (huCBE11 4 mg/kg, Day 34) was 558.9 cubic mm and the “Mean Tumor Volume Decrease” value (huCBE11 4 mg/kg, Day 34) was 491.4 cubic mm. For the same substance, the “Mean Fraction Affected (Fa)” value (huCBE11 4 mg/kg, Day 37) was 0.511, the “Mean Fraction Affected/Fraction Unaffected (Fa/Fu)” value (huCBE11 4 mg/kg, Day 37) was 1.044 and the “Mean Tumor Volume” value (huCBE11 4 mg/kg, Day 37) was 591.1 cubic mm. For the same substance, the “Mean Tumor Volume Decrease” value (huCBE11 4 mg/kg, Day 37) was 616.9 cubic mm, the “Mean Fraction Affected (Fa)” value (huCBE11 4 mg/kg, Day 41) was 0.512 and the “Mean Fraction Affected/Fraction Unaffected (Fa/Fu)” value (huCBE11 4 mg/kg, Day 41) was 1.050. For the same substance, the “Mean Tumor Volume” value (huCBE11 4 mg/kg, Day 41) was 702.0 cubic mm, the “Mean Tumor Volume Decrease” value (huCBE11 4 mg/kg, Day 41) was 737.4 cubic mm and the “Mean Fraction Affected (Fa)” value (huCBE11 4 mg/kg, Day 43) was 0.518. For the same substance, the “Mean Fraction Affected/Fraction Unaffected (Fa/Fu)” value (huCBE11 4 mg/kg, Day 43) was 1.073, the “Mean Tumor Volume” value (huCBE11 4 mg/kg, Day 43) was 775.1 cubic mm and the “Mean Tumor Volume Decrease” value (huCBE11 4 mg/kg, Day 43) was 831.6 cubic mm. The “Inhibition of tumor growth vs vehicle control” value (huCBE11 20 mg/kg Days 16 through 55, 2 mg/kg Days 16 through 55, 0.2 mg/kg Days 20 through 55, separate study) was “significant inhibition of tumor growth”, the “Mean Fraction Affected (Fa)” value (huCBE11 20 mg/kg alone, Day 9) was 0.053 and the “Mean Fraction Affected (Fa)” value (huCBE11 20 mg/kg alone, Day 13, 20 mg/kg) was 0.087 and 0.086. For the same substance, the “Mean Fraction Affected (Fa)” value (huCBE11 20 mg/kg alone, Day 16, 20 mg/kg) was 0.263 and 0.264, the “Mean Fraction Affected (Fa)” value (huCBE11 20 mg/kg alone, Day 20) was 0.435 and the “Mean Fraction Affected (Fa)” value (huCBE11 20 mg/kg alone, Day 23) was 0.504. The “Mean Fraction Affected (Fa)” value (huCBE11 20 mg/kg alone, Day 27) was 0.576, the “Mean Fraction Affected (Fa)” value (huCBE11 20 mg/kg alone, Day 30) was 0.539 and the “Mean Fraction Affected (Fa)” value (huCBE11 20 mg/kg alone, Day 34) was 0.543. For the same substance, the “Mean Fraction Affected (Fa)” value (huCBE11 20 mg/kg alone, Day 37) was 0.525, the “Mean Fraction Affected (Fa)” value (huCBE11 20 mg/kg alone, Day 41) was 0.538 and the “% T/C” value (huCBE11 20 mg/kg, Day 27 (lowest observed)) was 42.4%. The “Activity by NCI criteria (% T/C at or below 42)” value (huCBE11, studies of the Camptosar example) was “inactive”, the “Activity by NCI criteria (% T/C of 42 or less)” value (huCBE11, studies of the gemcitabine example) was “active” and the “% T/C” value (huCBE11 dose groups, throughout both studies (Camptosar example)) was greater than 42%.
